Experimental data reported in paper PMC10313671, “Accelerating the prediction and discovery of peptide hydrogels with human-in-the-loop” (Nature Communications, 2023).
Where a SMILES comes first, the peptide text is derived from it.

What was measured:
[1] = Peptide hydrogel formation, vial-inverting method; type: physicochemical; design: key to EXP / GELATION: 0: no hydrogel; 1: hydrogel; settings: for State: ultrasonication, standing 48 h; for Concentration: concentration at which the state was recorded: lowest of 30, 60, 90, 120 mM that gave a gel, 120 mM for non-gelating peptides; for GELATION: 1 = hydrogel, 0 = no hydrogel
Procedure: After validating the efficiency of APHC in predicting tetrapeptide hydrogels, we detailed the phase state of 165 synthesized tetrapeptides and the observed assembly behavior in an aqueous solution.
This work defines hydrogel formation as a self-supporting, non-flowing mixture of water and hydrogelator by the vial-inverting method. All purified tetrapeptides were dissolved in ultrapure water (to form a 30 mM solution initially), followed by the stepwise addition of 1 N NaOH solution to adjust the overall aqueous pH to 6.5–8.5. Meanwhile, a short-term ultrasonication treatment was applied after each pH adjustment to facilitate peptide solubilization and speed up peptide self-assembly. […] The mixture was allowed to stand in for another 48 h for complete hydrogelation. Upon the absence of gelation phenomenon during the aforementioned loops, we increased the peptide concentration (60 mM, 90 mM, and 120 mM were selected) and re-started such gelation operation loop to explore their gelation feasibility.

[2] = Transmission electron microscope (negative staining) of peptide assemblies; settings: for Morphology: TEM, negative staining with uranyl acetate, 120 kV
Procedure: We used the negative staining technique to observe the morphologies formed by peptides. A micropipette was used to load 10 μL of sample solution to a carbon-coated copper grid, and we used a piece of filter paper to remove the excess solution. After rinsing the grid with the deionized water, we used uranyl acetate to stain the sample for 1 minute and then rinsed the grid with deionized water again.

[3] = 120 mM peptide (highest tested) in ultrapure water, pH 6.5-8.5 (1 N NaOH), vial-inverting method, precipitate, sol, suspension = no gel
[4] = peptide concentration 120 mM, vial-inverting method
[5] = 90 mM peptide in ultrapure water, pH 6.5-8.5 (1 N NaOH), vial-inverting method, no gel at lower concentrations
[6] = peptide concentration 90 mM, vial-inverting method
[7] = 30 mM peptide in ultrapure water, pH adjusted to 6.5-8.5 with 1 N NaOH, vial-inverting method, concentration raised 30/60/90/120 mM until gelation
[8] = peptide concentration 30 mM, vial-inverting method
[9] = 60 mM peptide in ultrapure water, pH 6.5-8.5 (1 N NaOH), vial-inverting method, no gel at 30 mM
[10] = peptide concentration 60 mM, vial-inverting method

Structure (SMILES)	State [1, 3]	Concentration [1]	GELATION [1, 4]	Morphology ([2]; line of the table gives 120 mM)	State [1, 7]	GELATION [1, 8]	Morphology ([2]; line of the table gives 30 mM)	other results
CC(C)C[C@H](N)C(=O)N[C@@H](Cc1ccccc1)C(=O)N[C@@H](Cc1c[nH]c2ccccc12)C(=O)N[C@@H](CO)C(=O)O [LFWS] (H-LFWS-OH)	gel	120 mM	1	sphere				
CC(C)C[C@H](N)C(=O)NCC(=O)N[C@H](C(=O)N[C@@H](Cc1ccccc1)C(=O)O)C(C)C [LGVF] (H-LGVF-OH)	sol	120 mM	0	fibre				
CC[C@H](C)[C@H](NC(=O)[C@@H](NC(=O)[C@H](Cc1c[nH]cn1)NC(=O)[C@@H](N)CC(C)C)[C@@H](C)CC)C(=O)O [LHII] (H-LHII-OH)	sol	120 mM	0	aggregates				
CC[C@H](C)[C@H](NC(=O)[C@@H](N)CC(C)C)C(=O)N[C@@H](CCC(=O)O)C(=O)N[C@@H](CCSC)C(=O)O [LIEM] (H-LIEM-OH)		90 mM						State [1, 5]: gel; GELATION [1, 6]: 1; Morphology ([2]; line of the table gives 90 mM): hybrid(sheet+fibre)
CC(C)C[C@H](NC(=O)[C@@H](N)CC(C)C)C(=O)N[C@@H](Cc1c[nH]cn1)C(=O)N[C@@H](Cc1ccccc1)C(=O)O [LLHF] (H-LLHF-OH)		30 mM			gel	1	hybrid(sphere+fibre)	
CC(C)C[C@H](NC(=O)[C@H](CC(C)C)NC(=O)[C@@H](N)CC(C)C)C(=O)N[C@@H](Cc1ccccc1)C(=O)O [LLLF] (H-LLLF-OH)		30 mM			gel	1	aggregates	
CC(C)C[C@H](NC(=O)[C@H](CC(C)C)NC(=O)[C@H](CC(C)C)NC(=O)[C@@H](N)CC(C)C)C(=O)O [LLLL] (H-LLLL-OH)		30 mM			gel	1	needle	
CC(C)C[C@H](NC(=O)[C@H](CC(C)C)NC(=O)[C@@H](N)CC(C)C)C(=O)N[C@@H](CO)C(=O)O [LLLS] (H-LLLS-OH)		30 mM			gel	1	sheet	
CC(C)C[C@H](NC(=O)[C@H](CC(C)C)NC(=O)[C@@H](N)CC(C)C)C(=O)N[C@@H](Cc1ccc(O)cc1)C(=O)O [LLLY] (H-LLLY-OH)		30 mM			gel	1	hybrid(sphere+fibre)	
CC(C)C[C@H](NC(=O)[C@@H](N)CC(C)C)C(=O)N[C@@H](CCCNC(=N)N)C(=O)N[C@@H](CCC(N)=O)C(=O)O [LLRQ] (H-LLRQ-OH)	suspension	120 mM	0	aggregates				
CC(C)C[C@H](NC(=O)[C@H](CO)NC(=O)[C@H](CC(C)C)NC(=O)[C@@H](N)CC(C)C)C(=O)O [LLSL] (H-LLSL-OH)		60 mM						State [1, 9]: gel; GELATION [1, 10]: 1; Morphology ([2]; line of the table gives 60 mM): sheet
CC(C)C[C@H](N)C(=O)N[C@@H](CCCNC(=N)N)C(=O)N[C@@H](Cc1ccccc1)C(=O)N[C@@H](Cc1c[nH]cn1)C(=O)O [LRFH] (H-LRFH-OH)	sol	120 mM	0	particle				morphology by TEM (in words) ([2]; aqueous solution or hydrogel, negative staining): aggregates with different sizes
CC(C)C[C@H](N)C(=O)N[C@@H](CO)C(=O)N[C@@H](Cc1ccccc1)C(=O)N[C@@H](Cc1c[nH]c2ccccc12)C(=O)O [LSFW] (H-LSFW-OH)		60 mM						State [1, 9]: gel; GELATION [1, 10]: 1; Morphology ([2]; line of the table gives 60 mM): hybrid(sphere+fibre)
CC(C)C[C@H](NC(=O)[C@@H](NC(=O)[C@@H](N)CC(C)C)[C@@H](C)O)C(=O)N[C@@H](Cc1ccccc1)C(=O)O [LTLF] (H-LTLF-OH)		30 mM			gel	1	sheet	
CC[C@H](C)[C@H](NC(=O)[C@H](CC(C)C)NC(=O)[C@@H](NC(=O)[C@@H](N)CC(C)C)[C@@H](C)O)C(=O)O [LTLI] (H-LTLI-OH)		30 mM			gel	1	sheet	
CC(C)C[C@H](N)C(=O)N[C@H](C(=O)N[C@@H](Cc1c[nH]c2ccccc12)C(=O)N[C@@H](Cc1ccccc1)C(=O)O)[C@@H](C)O [LTWF] (H-LTWF-OH)	sol	120 mM	0	aggregates				
CC[C@H](C)[C@H](NC(=O)[C@H](C)NC(=O)[C@@H](NC(=O)[C@@H](N)CC(C)C)C(C)C)C(=O)O [LVAI] (H-LVAI-OH)		60 mM						State [1, 9]: gel; GELATION [1, 10]: 1; Morphology ([2]; line of the table gives 60 mM): fibre
CC(C)C[C@H](N)C(=O)N[C@H](C(=O)N[C@@H](Cc1ccccc1)C(=O)N[C@@H](Cc1ccccc1)C(=O)O)C(C)C [LVFF]		30 mM			gel	1	sphere	
CC(C)C[C@H](N)C(=O)N[C@H](C(=O)N[C@@H](Cc1ccccc1)C(=O)NCC(=O)O)C(C)C [LVFG] (H-LVFG-OH)		60 mM						State [1, 9]: gel; GELATION [1, 10]: 1; Morphology ([2]; line of the table gives 60 mM): aggregates
CC(C)C[C@H](N)C(=O)N[C@H](C(=O)N[C@@H](Cc1c[nH]cn1)C(=O)N[C@@H](Cc1ccccc1)C(=O)O)C(C)C [LVHF] (H-LVHF-OH)		30 mM			gel	1	hybrid(sphere+fibre)	
CC[C@H](C)[C@H](NC(=O)[C@@H](NC(=O)[C@@H](N)CC(C)C)C(C)C)C(=O)N[C@@H](Cc1ccccc1)C(=O)O [LVIF] (H-LVIF-OH)		60 mM						State [1, 9]: gel; GELATION [1, 10]: 1; Morphology ([2]; line of the table gives 60 mM): fibre
CC[C@H](C)[C@H](NC(=O)[C@@H](NC(=O)[C@@H](NC(=O)[C@@H](N)CC(C)C)C(C)C)[C@@H](C)CC)C(=O)O [LVII] (H-LVII-OH)		30 mM			gel	1	sheet	
CC[C@H](C)[C@H](NC(=O)[C@@H](NC(=O)[C@@H](N)CC(C)C)C(C)C)C(=O)N[C@@H](Cc1ccc(O)cc1)C(=O)O [LVIY] (H-LVIY-OH)	gel	120 mM	1	sheet				
CC[C@H](C)[C@H](NC(=O)[C@H](CC(C)C)NC(=O)[C@@H](NC(=O)[C@@H](N)CC(C)C)C(C)C)C(=O)O [LVLI] (H-LVLI-OH)		30 mM			gel	1	sheet	
CC(C)C[C@H](N)C(=O)N[C@H](C(=O)N1CCC[C@H]1C(=O)N[C@@H](Cc1ccccc1)C(=O)O)C(C)C [LVPF] (H-LVPF-OH)	sol	120 mM	0	aggregates				
CC(C)C[C@H](N)C(=O)N[C@H](C(=O)N[C@@H](Cc1c[nH]c2ccccc12)C(=O)N[C@@H](Cc1ccccc1)C(=O)O)C(C)C [LVWF] (H-LVWF-OH)		90 mM						State [1, 5]: gel; GELATION [1, 6]: 1; Morphology ([2]; line of the table gives 90 mM): needle
CC(C)C[C@H](N)C(=O)N[C@@H](Cc1c[nH]c2ccccc12)C(=O)N[C@@H](Cc1ccccc1)C(=O)N[C@@H](Cc1ccccc1)C(=O)O [LWFF] (H-LWFF-OH)		30 mM			gel	1	hybrid(sheet+fibre)	
CC[C@H](C)[C@H](NC(=O)[C@H](Cc1ccccc1)NC(=O)[C@H](Cc1c[nH]c2ccccc12)NC(=O)[C@@H](N)CC(C)C)C(=O)O [LWFI] (H-LWFI-OH)	sol	120 mM	0	aggregates				
CC(C)C[C@H](N)C(=O)N[C@@H](Cc1c[nH]c2ccccc12)C(=O)N[C@@H](Cc1ccccc1)C(=O)N[C@@H](Cc1c[nH]c2ccccc12)C(=O)O [LWFW] (H-LWFW-OH)		30 mM			gel	1	sphere	CONCENTRATION (at which the hydrogel formed) ([1]; hydrogel-forming peptides only, vial-inverting method): 30 mM
CC(C)C[C@H](N)C(=O)N[C@@H](Cc1c[nH]c2ccccc12)C(=O)N[C@@H](Cc1c[nH]c2ccccc12)C(=O)N[C@@H](Cc1ccccc1)C(=O)O [LWWF] (H-LWWF-OH)		30 mM			gel	1	aggregates	
